Source: US20100227853A1, “INHIBITORS OF CYCLIC AMP PHOSPHODIESTERASES” (Trustees of Boston College, priority 2008, published 2010)

Assays:
PDE4A1 = target: T1, PDE4A1 (Mus musculus, UniProt O89084); assay: 5FOA growth assay (high throughput screen, ED50) in fission yeast strain expressing PDE4A1; type: cell-based; settings: for Composite Z score, PDE4A1: high throughput 5FOA growth screen, greater than 8.53 = statistically-significant inhibitor
T1 construct: targets used in the assays are full-length proteins (as opposed to simply the catalytic domain); expressed in transfected cells; host or cells: Schizosaccharomyces pombe, PDE gene integrated in place of cgs2
T1 sequence (O89084 1-610 isoform O89084-2): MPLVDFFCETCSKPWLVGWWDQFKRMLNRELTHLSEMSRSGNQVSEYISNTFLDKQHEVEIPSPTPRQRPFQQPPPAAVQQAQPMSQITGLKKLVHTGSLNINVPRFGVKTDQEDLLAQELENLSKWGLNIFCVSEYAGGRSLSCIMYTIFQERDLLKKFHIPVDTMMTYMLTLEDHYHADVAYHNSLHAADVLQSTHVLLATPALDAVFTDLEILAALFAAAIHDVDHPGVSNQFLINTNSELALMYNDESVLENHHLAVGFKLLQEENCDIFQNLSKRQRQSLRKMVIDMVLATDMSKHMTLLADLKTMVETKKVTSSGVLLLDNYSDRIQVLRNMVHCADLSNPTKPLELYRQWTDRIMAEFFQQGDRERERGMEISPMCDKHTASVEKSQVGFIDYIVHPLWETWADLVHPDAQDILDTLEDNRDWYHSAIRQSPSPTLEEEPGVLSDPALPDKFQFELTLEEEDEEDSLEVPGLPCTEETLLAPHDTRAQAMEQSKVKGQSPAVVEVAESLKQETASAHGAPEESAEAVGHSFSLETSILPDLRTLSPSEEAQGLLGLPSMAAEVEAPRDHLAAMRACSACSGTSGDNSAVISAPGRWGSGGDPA
Procedure, shortened: (§1)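 Readout is OD600 after 48 h at 30° C in 5FOA medium, starting from 0.5–4×10^5 cells/ml; 5 mM cAMP served as positive control. Yeast expressing mouse PDE4A1 or PDE4B3 with an fbp1-ura4 reporter was first grown to exponential phase in EMM plus 0.5–2.5 mM cAMP. Hits were scored by composite Z scores.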

PDE4B3 = target: T2, PDE4B3 (Mus musculus, UniProt Q8VBU5); assay: 5FOA growth assay in fission yeast strain expressing PDE4B3; type: cell-based, Murine; settings: for Composite Z score, PDE4B3: high throughput 5FOA growth screen
T2 construct: targets used in the assays are full-length proteins (as opposed to simply the catalytic domain); expressed in transfected cells; host or cells: Schizosaccharomyces pombe, PDE gene integrated in place of cgs2
T2 sequence (Q8VBU5 1-721): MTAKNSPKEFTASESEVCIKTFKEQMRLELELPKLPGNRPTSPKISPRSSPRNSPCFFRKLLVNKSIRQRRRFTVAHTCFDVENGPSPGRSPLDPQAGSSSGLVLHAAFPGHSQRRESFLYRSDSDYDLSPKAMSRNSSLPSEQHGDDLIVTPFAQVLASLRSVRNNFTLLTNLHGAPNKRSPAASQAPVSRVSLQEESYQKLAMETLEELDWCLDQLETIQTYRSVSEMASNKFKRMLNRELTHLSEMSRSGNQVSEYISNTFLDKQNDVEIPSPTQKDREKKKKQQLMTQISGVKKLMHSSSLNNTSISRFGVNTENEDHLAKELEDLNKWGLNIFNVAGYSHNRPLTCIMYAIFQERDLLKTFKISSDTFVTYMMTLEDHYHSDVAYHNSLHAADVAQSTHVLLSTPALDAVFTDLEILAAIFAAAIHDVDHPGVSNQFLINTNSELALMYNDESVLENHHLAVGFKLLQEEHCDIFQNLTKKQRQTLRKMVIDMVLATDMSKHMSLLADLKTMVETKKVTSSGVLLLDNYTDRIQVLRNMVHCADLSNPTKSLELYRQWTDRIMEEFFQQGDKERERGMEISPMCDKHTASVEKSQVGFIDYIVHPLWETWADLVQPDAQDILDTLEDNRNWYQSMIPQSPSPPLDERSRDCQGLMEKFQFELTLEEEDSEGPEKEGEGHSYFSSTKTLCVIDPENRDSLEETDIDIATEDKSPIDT
Procedure, shortened: as §1

Composite Z score, PDE4A1 (PDE4A1) | Composite Z score, PDE4B3 (PDE4B3) | 2 Assay (2 uM), 4A1 (PDE4A1; 2 uM, PDE 4A1) | 1 Assay (20 uM) 4A1 (PDE4A1; 20 uM, PDE 4A1) | 2 Assay (2 uM), 4B3 (PDE4B3; 2 uM, PDE 4B3) | 1 Assay (20 uM) 4B3 (PDE4B3; 20 uM, PDE 4B3) | SMILES
19.619 | 4.5126 | – | – | – | – | COc1cccc(NC(=O)c2sc3ncnc(N4CCc5ccccc5C4)c3c2C)c1 [Compound 2041K21]
– | – | 2.18 | 81.97 | 8.18 | 37.13 | Cc1ccc2c(c1)CCC1CC(=O)CC[C@]21C (stereo partly shown) [Compound 2158J12]
2.3863 | −0.211 | – | – | – | – | CCNc1nc(SCc2ccc(Cl)cc2)nc2sc3c(c12)CCN(C)C3 [Compound 2054P05]
8.6742 | 3.2214 | – | – | – | – | CCN(CC)c1nc(C)nc2sc(C(=O)Nc3cc(Cl)ccc3OC)c(C)c12 [Compound 2040L12]
3.5005 | 0.9277 | – | – | – | – | Cc1c(C(=O)NCCC(C)C)sc2ncnc(N3CCOCC3)c12 [Compound 2040F13]

Second part, the compound before the results:

SMILES | Composite Z score, PDE4A1 (PDE4A1) | Composite Z score, PDE4B3 (PDE4B3) | 2 Assay (2 uM), 4A1 (PDE4A1; 2 uM, PDE 4A1) | 1 Assay (20 uM) 4A1 (PDE4A1; 20 uM, PDE 4A1) | 2 Assay (2 uM), 4B3 (PDE4B3; 2 uM, PDE 4B3) | 1 Assay (20 uM) 4B3 (PDE4B3; 20 uM, PDE 4B3)
CCOC(=O)c1sc2nc(C)nc(N(C)Cc3ccccc3)c2c1C [Compound 2007L04] | 0.6949 | 0.2682 | – | – | – | –
Cc1c(C(=O)Nc2ccc(F)cc2F)sc2ncnc(N(C)c3ccccc3)c12 [Compound 58-9] | 25.972 | 78.662 | – | – | – | –
CC1CC(=O)N(c2ncnc3sc4c(c23)CCCC4)N1 (stereo not shown) [2054 E16] | 0.2389 | 0.62 | – | – | – | –
CCOC(=O)c1sc2nc(C)nc(N3CCC(C)CC3)c2c1C [Compound 2007D06] | −0.396 | 0.2826 | – | – | – | –
Cc1c(C(=O)Nc2ccc(F)cc2F)sc2ncnc(N3CCC(C)CC3)c12 [BC58] | 34.335 | 78.927 | – | – | – | –
